From patent US20220404336A1, “COMPOSITIONS, METHODS AND USES FOR FREE FATTY ACID SCREENING OF CELLS AT SCALE” (priority 2019, published 2022)
Entries after “also recorded” stand apart in the source; their conditions may differ. Where two headings read alike, the source gives them in different places.

Key:
[1] = system: ATF4 and CHOP; experiment: Western blot, induction of the UPR; format: cell-based, mouse; conditions: MIN6 cells, BSA negative control
Protocol: MIN6 cells were lysed (#9803, Cell Signaling Technology) in the presence of protease inhibitors (#05892791001, Roche) and phosphatase inhibitors (#04906837001, Roche). Protein concentrations were quantified with the Pierce BCA Protein Assay Kit (#23225, Thermo Fisher Scientific). NuPAGE LDS sample buffer (#NP0008, Thermo Fisher Scientific) was added to normalized protein lysates together with NuPAGE reducing agent (#NP0004, Thermo Scientific). Lysates were heated to 95° C. for 5 min prior to SDS-PAGE gel electrophoresis (NuPAGE MES SDS running buffer, Thermo Fisher Scientific, #NP0002). Proteins were transferred to a nitrocellulose membrane (#1704158, BioRad) with the Trans-Blot® Turbo™ Blotting System (#1704155, BioRad) according to the manufacturer's protocol. Membranes were blocked in 5% Nonfat Dry Milk (#9999S, Cell Signaling Technology) in PBS with 0.1% Tween® 20 (PBS-T). Primary antibodies were incubated at 4° C. overnight, secondary antibodies were incubated at room temperature for 1 h. Super Signal West Dura (#34076, Thermo Fisher Scientific) or Super Signal West Pico (#34087, Thermo Fisher Scientific) were used to visualize immunoreactive bands imaged by G:BOX Chemi XT4:BOX-CHEMI-XT4, Syngene). Primary Antibodies used in this study: CPT1A: (Abcam #ab128568), ATF4: (CST #11815), CHOP: (CST #2895).

[2] = system: MIN6 cells; experiment: ER calcium levels (Fluo4, thapsigargin, FLIPR Tetra); format: cell-based, mouse; conditions: FFA treatment 24 h, relative to negative control (BSA)
Protocol: MIN6 cells were plated in 384 well plates (Aurora, Black 384 SQ Well 188 micron Film, #1022-10110) and treated with the FFA library for 24 h prior to readout. Cells were carefully washed three times with HBSS (with calcium, Thermo Fisher Scientific, #14025076) using an automated simultaneous pipettor (analytikjena CyBio® Well vario) and incubated with the fluorescent calcium indicator Fluo4 (2 μM, Life Technologies, #F14202) in DMEM without additions for 1 h at room temperature. Then, cells were washed again in HBSS (with calcium) and incubated for another 30 min at room temperature in DMEM without additions. Just before the readout, cells were washed in final calcium free assay buffer solution (140 mM NaCl, 5 mM Kcl, 10 mM HEPES, 2 mM MgCl2, 10 mM EGTA, 10 mM Glucose) and left with 25 ul assay volume per well. Assay plates were immediately transferred to the FLIPR Tetra® High-Throughput Cellular Screening System. The plate was recorded with a frequency of 1 Hz for 10 min. Baseline was recorded for 30 s before the automated liquid transfer system of the FLIPR added the SERCA inhibitor Thapsigargin (final concentration 10 μM) in calcium free assay buffer. The resulting passive efflux of calcium from the ER induced a transient cytosolic fluorescence signal and the peak amplitudes were used to indirectly quantify ER calcium levels (See Extended Data FIG. 3d). The resulting trajectories were corrected for a pipetting artifact and baseline normalized. Log 2 Fold changes were calculated according to plate location specific negative (BSA) controls. The exclusion of one outlier/FFA/plate (n=5) based on a 3 sigma cutoff was allowed. P-values were calculated with Student's t-test (two-sided) and corrected for multiple testing (Benjamin & Hochberg).

[3] = system: MIN6 cells; format: cell-based
Protocol: For high throughput cell viability assay, cells were seeded in 384 well plates (Perkin Elmer, CellCarrier Ultra, #6057300) and treated for 24, 48 and 72 h with the FFA library. Just before readout, cell nuclei were stained with Hoechst (Thermo Fisher Scientific) for 1 h at 37° C. and imaged with the Opera Phenix High Content Screening System (#HH14000000, Perkin Elmer). Number of counted nuclei was determined with the image analysis software Harmony (PerkinElmer) and used as a proxy for cell viability. For low throughput validation experiments, cells were treated for 48 h with representative FFAs in CellCarrier-384 Ultra Microplates. Caspase 3/7 (Thermo Fisher Scientific, #C10423) activation and propidium iodide (Thermo Fisher Scientific, #P1304MP) staining were used to calculate the fraction of apoptotic cells and dead cells, respectively. Single cells were identified and counted after staining their nuclei with Hoechst. Fluorescence intensities were then measured and the threshold for Caspase 3/7 and propidium iodide positive staining was determined manually. Cell viability was calculated as the fraction of cells that were neither Caspase 3/7 nor propidium iodide positive.

[4] = system: human pancreatic islet cells; experiment: Toxicity against human pancreatic islet cells (C-peptide positive cell count); format: cell-based
Protocol: (§1) Human pancreatic islets from a deceased donor (Islet Research Resource ID: SAMN15400953) were purchased from the Integrated Islet Distribution program, dissociated, and cultured as described previously ([…] and Wagner. Curr. Protocols in Chem. Biol. 6: 157-168). In brief, 384 well plates (Perkin Elmer, CellCarrier Ultra, #6057300) were coated in ECM 2-3 days before the start of the experiment. HTB-9 cells (ATTC, 5637) were seeded at 10K/well into the 384 well plates and grown to confluence. All culture media was aspirated and 50 ul/well of 20 mM NH4OH in PBS (Sigma) was added. The plates were incubated at 37 C for 6 minutes, after which the NH4OH was pipetted up and down 4-5 times before being aspirated. The wells were then filled with 50 ul/well PBS until seeding with human islets. Human islets were pelleted and dissociated with StemPro Accutase (Life Technologies, A11105-01) at 37 C for 20-25 minutes followed by pipetting to mix 5-7 times. The dissociated islets were resuspended in CMRL 1066 medium (CellGro, cat. no. 15-110-CV) supplemented with 10% FBS, 1× L-glutamine, and 1× penicillin/streptomycin, filtered through a nylon mesh to remove large cell aggregates, and seeded at 10K/well density in the coated 384w plate. These islets were maintained in full CMRL media at 37 C, 95% humidity, and 5% CO2 with media changes every third day. For testing of free fatty acids for toxicity against human pancreatic islet cells (FIG. 8), C2, C3, and C4 free fatty acids were incubated with human pancreatic islet cells at concentrations of 250 μM, 500 μM, and 1 mM for 120 hours with one media change at 72 hours. The islets were subsequently fixed with 3% paraformaldehyde for 20 minutes, permeabilized with 0.2% TritonX-100 for another 20 minutes, and blocked for 3 hours at RT in 2% BSA in PBS (SeraCare, AP-45100-80). The islets were stained with C-peptide antibody (Developmental studies hybridoma bank at University of Iowa) at 1:100 in 2% BSA/PBS overnight rocking at 4 C, washed with PBS three times followed by once with 1% BSA/PBS, and then incubated with 568 Goat anti-rat (Life technologies, A11077) at 1:1000 and Hoechst (Thermo Fisher Scientific) at 1:1000 for one hour at RT. These islets were then imaged with the Operetta CLS High Content Screening System (#HH16000000, Perkin Elmer). The number of C-peptide positive cells in each well was quantified using Harmony software (PerkinElmer) and used as a proxy for cell viability.

[5] = as above; format: cell-based; conditions: female, dissociated human pancreatic islet cells; human islet cells, 120 hours; relative to the C3 and tested C4 free fatty acids; read-out: decrease of human pancreatic cell viability
Protocol: as §1

[6] = system: NF-κB p65/RELA; experiment: RELA nuclear translocation, immunofluorescence; format: cell-based, mouse; conditions: MIN6 cells, 18 hours, BSA negative control
Protocol: Cells grown on 384 well CellCarrier Ultra microplates (#6057308, PerkinElmer) were fixed 10 min in PBS containing 4% PFA (Electron Microscopy Sciences), permeabilized 15 min in 0.5% Triton X-100 (Sigma-Aldrich), blocked for 1 h in blocking reagent (100 mM Tris HCL pH8; 150 mM NaCL; 5 g/L Blocking Reagent (#11096176001, Roche)) and treated for 1.5 h with primary antibody diluted in blocking reagent (NF-κB p65/RELA, Rabbit monoclonal antibody, 1:200, (#8242, Cell Signaling Technology). Cells were washed three times in PBS and incubated for 0.5 h with fluorescent-labeled secondary antibody in blocking solution (1:500, Alexa Fluor 568 Goat anti-Rabbit IgG, (#A11036, Thermo Fisher Scientific)). Cytoplasmic actin filaments were stained with Phalloidin conjugated with Alexa 647 (1:40, #A22287, Thermo Fisher Scientific) and nuclei were counterstained with Hoechst (1:2000, #H3570, Thermo Fisher Scientific). Cells were washed three times in PBS and imaged using the Opera Phenix High Content Screening System, #HH14000000, Perkin Elmer). A minimum of nine fields was acquired per well using 20× water immersion objectives in a confocal mode. Image analysis was performed using the Harmony software (PerkinElmer). Cell nuclei were first identified using Hoechst staining and nuclear region was defined for each cell. Phalloidin staining was then used to detect and define the cytoplasmic region of the cell. RELA fluorescent intensity was measured separately in the nuclear and cytoplasmic regions and a threshold for a nuclear translocation was defined using negative (BSA) and positive (TNFα) controls. For each well the fraction of cells identified for RELA nuclear translocation was calculated.

[7] = MIN6 cells, representative FFAs, 48 h

Structure (SMILES) | induction of the UPR (ATF4 and CHOP protein abundance) [1] | ER Ca^2+ levels (peak amplitude after thapsigargin 10 μM) [2] | apoptosis (caspase activity) and cell death (propidium iodide positive nuclei); cell viability [3, 7] | decrease of human pancreatic cell viability [4] | apoptosis (caspase activity) and cell death (propidium iodide positive nuclei); cell viability [3] | human pancreatic cell viability ([4]; human islet cells, 250 μM, 500 μM, 1 mM, 120 hours, relative to C3 FFAs 9Z-octadecenoic acid, 6Z-octadecenoic acid and C4 FFA 10Z-nonadecenoic acid) | cytotoxicity at 120 h [5] [%] | nuclear translocation of RELA (p65) [6]
CCCCC/C=C\C/C=C\C/C=C\CCCCC(=O)O [GLA, gamma-linoleic acid] | None | increased | trended towards decreased viability |  |  |  |  | 
CCCCCCCC/C=C\CCCCCCCCCCCCC(=O)O [14Z-tricosenoic acid, 14(Z)-Tricosenoic acid] |  |  |  | more than 50% |  |  |  | 
CCCCCCCC/C=C\CCCCCCCC(=O)O [OA, 9(Z)-Octadecenoic acid] | None | near-baseline |  |  | not associated with changes in cell viability |  |  | 
CCCCC/C=C\C/C=C\C/C=C\C/C=C\CCCC(=O)O [AA, 5(Z),8(Z),11(Z),14(Z)-Eicosatetraenoic Acid] | None | increased |  |  | trended towards decreased viability |  |  | 
CCCCCCCC/C=C\CCCCCCCCCCCC(=O)O [EA, 13(Z)-Docosenoic acid] | upregulation of ATF4 and CHOP protein abundance; also recorded: inducing ATF4 and CHOP | significant reduction of ER Ca^2+ levels | consistently induced apoptosis and cell death; also recorded: reduced cell viability |  |  | decreased human pancreatic cell viability | > 50 | translocated to the nucleus; also recorded: Complete translocation of RELA from the cytosol to the nucleus
CCCCCCCCCCCCCCCC(=O)O [PA, Hexadecanoic acid] | upregulation of ATF4 and CHOP protein abundance; also recorded: inducing ATF4 and CHOP | significant reduction of ER Ca^2+ levels |  |  |  |  |  | translocated to the nucleus
CCCCCCCC/C=C\CCCCCCCCCCCCCC(=O)O [15Z-tetracosenoic acid, 15(Z)-Tetracosenoic acid] |  |  |  | more than 50% |  |  |  | 
CCCCCCCCCCC/C=C\CCCCC(=O)O [PSA, petroselenic acid] | None | near-baseline | not associated with changes in cell viability |  |  |  |  | moderate RELA translocation to the nucleus
